# Assay results published in ChEMBL document CHEMBL1201862, “PubChem BioAssay data set” (2004).
#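 Step 1: Grow cells in 96-well plates. Step 2: Expose to compound for 48 hours at 5 concentrations. Step 3: Interpolate endpoints linearly; if unreached, use highest concentration. At the GI50, growth is halved.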 Calls of active or inactive are those of the source. Rule as the data show it: active = GI50 up to about 1.1 µM and inactive = higher.
# Experiments:
# Experiment in all cases: inhibition of tumour cell growth, NCI panel, 48 h
# SR = tested on: SR
# NCI-H460 = tested on: NCI-H460
# NCI-H226 = tested on: NCI-H226
# TK-10 = tested on: TK-10
# DU-145 = tested on: DU-145
# U-251 = tested on: U-251
# MCF7 = tested on: MCF7
# CCRF-CEM = tested on: CCRF-CEM
# SK-MEL-5 = tested on: SK-MEL-5
# SF-268 = tested on: SF-268
# NCI-H522 = tested on: NCI-H522
# NCI/ADR-RES = tested on: NCI/ADR-RES
# HCC 2998 = tested on: HCC 2998
# UO-31 = tested on: UO-31
# A498 = tested on: A498
# OVCAR-3 = tested on: OVCAR-3
# UACC-257 = tested on: UACC-257
# T47D = tested on: T47D
# HT-29 = tested on: HT-29
# Hs-578T = tested on: Hs-578T
# MOLT-4 = tested on: MOLT-4
# K562 = tested on: K562
# ACHN = tested on: ACHN
# RPMI-8226 = tested on: RPMI-8226
# MDA-N = tested on: MDA-N
# 786-0 = tested on: 786-0
# SF-539 = tested on: SF-539
# OVCAR-8 = tested on: OVCAR-8
# OVCAR-4 = tested on: OVCAR-4
# HCT-116 = tested on: HCT-116
# Malme-3M = tested on: Malme-3M
# SK-MEL-2 = tested on: SK-MEL-2
# UACC-62 = tested on: UACC-62
# SNB-75 = tested on: SNB-75
# BT-549 = tested on: BT-549
# RXF 393 = tested on: RXF 393
# HL-60 = tested on: HL-60
# M14 = tested on: M14
# COLO 205 = tested on: COLO 205
# OVCAR-5 = tested on: OVCAR-5
# SK-OV-3 = tested on: SK-OV-3
# MDA-MB-435 = tested on: MDA-MB-435
# A549 = tested on: A549
# HOP-62 = tested on: HOP-62
# SN12C = tested on: SN12C
# IGROV-1 = tested on: IGROV-1
# PC-3 = tested on: PC-3
# SF-295 = tested on: SF-295
# NCI-H23 = tested on: NCI-H23
# EKVX = tested on: EKVX
# SK-MEL-28 = tested on: SK-MEL-28
# KM12 = tested on: KM12
# MDA-MB-231 = tested on: MDA-MB-231
# CAKI-1 = tested on: CAKI-1
# HOP-92 = tested on: HOP-92
# HCT-15 = tested on: HCT-15
# SW-620 = tested on: SW-620
# SNB-19 = tested on: SNB-19
# LOX IMVI = tested on: LOX IMVI
smiles,measurement,setting,value
N#CC1N(C(=O)c2ccc(F)cc2)c2ccccc2N1C(=O)c1ccc(F)cc1,GI50,SR,70.3 µM (inactive)
same,GI50,NCI-H460,38.2 µM (inactive)
same,GI50,NCI-H226,31.1 µM (inactive)
same,GI50,TK-10,50.9 µM (inactive)
same,GI50,DU-145,32.9 µM (inactive)
same,GI50,U-251,74.5 µM (inactive)
same,GI50,MCF7,33 µM (inactive)
same,GI50,CCRF-CEM,28 µM (inactive)
same,GI50,SK-MEL-5,23.9 µM (inactive)
same,GI50,SF-268,> 100 µM (inactive)
same,GI50,NCI-H522,34.4 µM (inactive)
same,GI50,NCI/ADR-RES,26.7 µM (inactive)
same,GI50,HCC 2998,39.7 µM (inactive)
same,GI50,UO-31,37.7 µM (inactive)
same,GI50,A498,> 100 µM (inactive)
same,GI50,OVCAR-3,19.9 µM (inactive)
same,GI50,UACC-257,67.6 µM (inactive)
same,GI50,T47D,27.2 µM (inactive)
same,GI50,HT-29,33 µM (inactive)
same,GI50,Hs-578T,68.1 µM (inactive)
same,GI50,MOLT-4,17.3 µM (inactive)
same,GI50,K562,28.2 µM (inactive)
same,GI50,ACHN,38.5 µM (inactive)
same,GI50,RPMI-8226,23.7 µM (inactive)
same,GI50,MDA-N,48.5 µM (inactive)
same,GI50,786-0,74.5 µM (inactive)
same,GI50,SF-539,62.7 µM (inactive)
same,GI50,OVCAR-8,48.1 µM (inactive)
same,GI50,OVCAR-4,35.7 µM (inactive)
same,GI50,HCT-116,42.3 µM (inactive)
same,GI50,Malme-3M,68.9 µM (inactive)
same,GI50,SK-MEL-2,> 100 µM (inactive)
same,GI50,UACC-62,37.6 µM (inactive)
same,GI50,SNB-75,30.7 µM (inactive)
same,GI50,BT-549,24.9 µM (inactive)
same,GI50,RXF 393,71.6 µM (inactive)
same,GI50,HL-60,40.3 µM (inactive)
same,GI50,M14,43.8 µM (inactive)
same,GI50,COLO 205,21.8 µM (inactive)
same,GI50,OVCAR-5,> 100 µM (inactive)
same,GI50,SK-OV-3,> 100 µM (inactive)
same,GI50,MDA-MB-435,46.1 µM (inactive)
same,GI50,A549,> 100 µM (inactive)
same,GI50,HOP-62,> 100 µM (inactive)
same,GI50,SN12C,77.8 µM (inactive)
same,GI50,IGROV-1,32.4 µM (inactive)
same,GI50,PC-3,49.1 µM (inactive)
same,GI50,SF-295,> 100 µM (inactive)
same,GI50,NCI-H23,50.4 µM (inactive)
same,GI50,EKVX,44.4 µM (inactive)
same,GI50,SK-MEL-28,43.9 µM (inactive)
same,GI50,KM12,91.6 µM (inactive)
same,GI50,MDA-MB-231,46.7 µM (inactive)
same,GI50,CAKI-1,62.8 µM (inactive)
same,GI50,HOP-92,18.5 µM (inactive)
same,GI50,HCT-15,31.3 µM
same,GI50,SW-620,47.9 µM (inactive)
same,GI50,SNB-19,> 100 µM (inactive)
same,GI50,LOX IMVI,29 µM (inactive)
Nc1c(-c2cccc3ccccc23)c2ccc([N+](=O)[O-])cc2c(=O)n1-c1nc2ccccc2s1,GI50,SR,12.5 µM (inactive)
same,GI50,NCI-H460,3.1 µM (inactive)
same,GI50,NCI-H226,2.41 µM (inactive)
same,GI50,TK-10,4.42 µM (inactive)
same,GI50,DU-145,7.57 µM (inactive)
same,GI50,U-251,3.71 µM (inactive)
same,GI50,MCF7,1.5 µM (inactive)
same,GI50,CCRF-CEM,1.33 µM (inactive)
same,GI50,SK-MEL-5,6.73 µM (inactive)
same,GI50,SF-268,3.18 µM (inactive)
same,GI50,NCI-H522,2.22 µM (inactive)
same,GI50,NCI/ADR-RES,2.26 µM (inactive)
same,GI50,HCC 2998,7.14 µM (inactive)
same,GI50,UO-31,4.1 µM (inactive)
same,GI50,A498,7.66 µM (inactive)
same,GI50,OVCAR-3,3.94 µM (inactive)
same,GI50,UACC-257,3.41 µM (inactive)
same,GI50,T47D,3.37 µM (inactive)
same,GI50,HT-29,5.02 µM (inactive)
same,GI50,Hs-578T,2.98 µM (inactive)
same,GI50,MOLT-4,3.03 µM (inactive)
same,GI50,K562,6.93 µM (inactive)
same,GI50,ACHN,3.16 µM (inactive)
same,GI50,RPMI-8226,1.02 µM (active)
same,GI50,MDA-N,7.13 µM (inactive)
same,GI50,786-0,5.64 µM (inactive)
same,GI50,SF-539,2.2 µM (inactive)
same,GI50,OVCAR-8,2.16 µM (inactive)
same,GI50,OVCAR-4,9.82 µM (inactive)
same,GI50,HCT-116,5.13 µM (inactive)
same,GI50,Malme-3M,3.58 µM (inactive)
same,GI50,SK-MEL-2,3.82 µM (inactive)
same,GI50,UACC-62,5.6 µM (inactive)
same,GI50,SNB-75,0.875 µM (active)
same,GI50,BT-549,14.3 µM (inactive)
same,GI50,RXF 393,6.04 µM (inactive)
same,GI50,HL-60,2.18 µM (inactive)
same,GI50,M14,11.7 µM (inactive)
same,GI50,COLO 205,18.1 µM (inactive)
same,GI50,OVCAR-5,14.3 µM (inactive)
same,GI50,SK-OV-3,2.75 µM (inactive)
same,GI50,MDA-MB-435,9.38 µM (inactive)
same,GI50,A549,3.32 µM (inactive)
same,GI50,HOP-62,7.21 µM (inactive)
same,GI50,SN12C,6.27 µM (inactive)
same,GI50,IGROV-1,3.41 µM (inactive)
same,GI50,PC-3,4.84 µM (inactive)
same,GI50,SF-295,5.53 µM (inactive)
same,GI50,NCI-H23,2.11 µM (inactive)
same,GI50,EKVX,1.94 µM (inactive)
same,GI50,SK-MEL-28,14.1 µM (inactive)
same,GI50,KM12,3.84 µM (inactive)
same,GI50,MDA-MB-231,5.37 µM (inactive)
same,GI50,CAKI-1,5.15 µM (inactive)
same,GI50,HOP-92,3.23 µM (inactive)
same,GI50,HCT-15,6.38 µM
same,GI50,SW-620,11.2 µM (inactive)
same,GI50,SNB-19,8.07 µM (inactive)
same,GI50,LOX IMVI,4.4 µM (inactive)
